Converted amounts (≈) assume the structure as drawn. “And” between values parts separate entries of the source, which are not always exact repeats. Equal entries are not always repeated. Where two headings read alike, the source gives them in different places.
Columns and labels:
vivax malaria = conditions: cited from earlier work; for relapse rate within a month: 1975 comparison with chloroquine
falciparum malaria = conditions: cited from earlier work; for recrudescence in a month: 1975, 3-day regimens
cerebral malaria = conditions: cited from earlier work
[1] = 500 mg orally, Child B cirrhosis; cited from earlier work
[2] = cited from earlier work
in vitro = conditions: African green monkey
SARS-COV-2 USA_WA1/2020 [3] = assay: microbe, parasite or virus in culture
SARS-CoV-2 [4] = conditions: VeroE6, 2-day incubation; cited from earlier work
SARS-CoV-2 [5] = conditions: Vero E6, MOI 0.01, 24 h post-infection; cited from earlier work
TGF-β mRNA = conditions: 100 mg/kg ip daily for 20 days; P<0.01; cited from earlier work
SARS-COV-2 USA_WA1/2020 [6] = conditions: for Antiviral activity against SARS-CoV-2 (words): Vero 76; for SI=CC50/EC50: SARS-CoV-2; for SI (CC50/EC50): SARS-CoV-2, Vero 76 cells; for EC50: 50% effective antiviral concentration: SARS-CoV-2 USA_WA1/2020, Vero 76, CPE neutral red, day 5
C8161 human melanoma = assay: Orthotopic C8161 human melanoma model
Vero E6 cells = conditions: remdesivir, literature; cited from earlier work
SARS-CoV-2 virus = conditions: higher values with higher multiplicity of infection; read-out: EC50 values for SARS-CoV-2 virus in the literature; cited from earlier work
[7] = healthy subjects; cited from earlier work
Vero 76 cells = conditions: for CC50: 50% cytotoxic concentration of compound without virus added: run alongside SARS-CoV-2 test
[8] = 527 cases of falciparum malaria

## C[C@@H]1CC[C@H]2[C@@H](C)C(=O)O[C@@H]3O[C@@]4(C)CC[C@@H]1[C@]32OO4 [Artemisinin]
Vivax malaria; 1511 cases of vivax malaria
  average asexual parasite clearance time: 30 to 40 h
  average defervescence time: 20 to 30 h
Vivax malaria; 1975: artemisinin tablets total 3 g, chloroquine total 1.5 g base
  parasite clearance time: 39.6 ± 13.5 h
Vivax malaria
  relapse rate within a month: 21.4%
Falciparum malaria; 143 cases, 3-day regimen oil, oil suspension or water suspension
  cure of chloroquine-resistant (RI-RIII) cases: all patients were cured
Falciparum malaria; [8]
  Fever clearance time: 30 to 40 h
  asexual parasite clearance time: 30 to 50 h
Falciparum malaria; 1975, 3-day regimens: artemisinin tablets 2.5 g, chloroquine 1.5 g base
  average asexual parasite clearance time: 37 ± 17.8 h
Falciparum malaria
  recrudescence in a month: All the cases
Falciparum malaria; group A: 500 mg daily for 5 days
  average parasite clearance time: 34 ± 14 h
Falciparum malaria; group B: 100/100/250/250/500 mg escalating
  average parasite clearance time: 50 ± 23 h
Falciparum malaria; single 500 mg oral dose, 11 patients
  mean parasite clearance time: 36 h
Falciparum malaria; tablets
  recrudescence rate within a month: 85%
Cerebral malaria; 141 patients
  mortality rate: 7.1%
  patients cured: 92.9%
Cerebral malaria; across all sites
  average defervescence time: 34.1 to 56.7 h
  average parasite clearance time: 33.3 to 64.5 h
  average time taken to regain consciousness: 21.5 to 30.8 h
Cerebral malaria; nasogastric gavage, 36 patients
  cure rate: 91.7%
[1]
  elimination half-life, log-linear regression: 4 (±1.3) h
  elimination half-life, non-linear regression, one-compartment model: 2.4 ± 0.9 h
  mean (±SD) area under the concentration time curve: 2365 (±1761) h ng/ml
  mean (±SD) clearance: 382 (±303) L/h
[2]; 500 mg after food
  AUC: 2,092±1,441 ng×ml^−1×h
  time at which half of the terminal value was reached: 0.97 ± 0.68 h
[2]; 500 mg capsules after food, six healthy subjects
  maximum concentration of drug in serum (Cmax): 443 ± 224 ng/mL
[2]; 1×250, 2×250, 4×250 mg capsules, eight healthy subjects
  oral plasma clearance: about 400 L h-1
[2]; population PK, 15 subjects, 160 and 500 mg
  mean oral clearance: 417 L/h
[2]; population PK, 15 subjects
  terminal elimination half-life: 1.93 h
  volume of distribution: 1210 L
[2]; semiphysiological autoinduction model, saliva
  mean induction time of own metabolism: 1.9 h
In vitro
  CC50: 61 µg/mL (≈ 216 µM)
SARS-COV-2 USA_WA1/2020 [3]; Severe acute respiratory syndrome coronavirus 2, Vero 76, 120 h, read-out: EC50 (50% effective antiviral concentration)
  EC50: 0.45 µg/mL
SARS-COV-2 USA_WA1/2020 [3]; Severe acute respiratory syndrome coronavirus 2, Vero 76, 120 h, read-out: EC50: 50% effective antiviral concentration
  EC50: 0.45 µg/mL
SARS-COV-2 USA_WA1/2020 [3]; Severe acute respiratory syndrome coronavirus 2, Vero 76, read-out: EC50 (value in brackets)
  EC50: 1.59 µM
SARS-CoV-2 [4]
  anti-SARS-CoV-2 activity by immunostaining for spike protein: confirmed
SARS-CoV-2 [5]
  anti-SARS-CoV-2 activity by RTPCR method: confirmed
TGF-β mRNA
  TGF-β mRNA levels within the tumor: significantly decreased
SARS-COV-2 USA_WA1/2020 [6]
  Antiviral activity against SARS-CoV-2 (words): suppressed SARS-CoV-2 replication
SARS-COV-2 USA_WA1/2020 [6]; listed as artemisinin
  Antiviral activity against SARS-CoV-2 (words): High antiviral activity

## CN(C)/N=N/c1[nH]cnc1C(N)=O [DTIC, dacarbazine]
C8161 human melanoma; group 3: 1 mg/kg ip four times/week
  Tumor growth suppressed versus control group 1 on day 42: −2%
C8161 human melanoma; group 4: 10 mg/kg ip four times/week
  Tumor growth suppressed versus control group 1 on day 42: 78%

## CCC(CC)COC(=O)[C@H](C)N[P@](=O)(OC[C@H]1O[C@@](C#N)(c2ccc3c(N)ncnn23)[C@H](O)[C@@H]1O)Oc1ccccc1 [Remdesivir]
Vero E6 cells
  CC50: > 200 µM

## CCN(CC)CCCC(C)Nc1ccnc2cc(Cl)ccc12 (stereo not drawn) [chloroquine]
Vivax malaria
  relapse rate within a month: no cases of relapse
Falciparum malaria
  recrudescence in a month: 50%

## CCN(CCO)CCCC(C)Nc1ccnc2cc(Cl)ccc12 (stereo not drawn) [hydroxychloroquine]
SARS-CoV-2 virus
  EC50: 0.72 to 17.3 µM

## Clc1ccc2c(N3CCN(CCCN4CCN(c5ccnc6cc(Cl)ccc56)CC4)CC3)ccnc2c1 [piperaquine]
[7]
  slope of plasma concentration vs placebo-adjusted ΔQTcF: 0.047 ms per ng ml-1

## AGCCCTGTATACGAC [FS (13,458-13,472)] (antisense AGCCCTGTAGACGAC; phosphorothioate backbone, further chemistry not given here)
Vero 76 cells; SARS-CoV-2 test
  Cytotoxicity: Cytotoxicity was observed
Vero 76 cells
  CC50: 50% cytotoxic concentration of compound without virus added: 430 µg/mL
SARS-COV-2 USA_WA1/2020 [6]
  SI=CC50/EC50: 53
  SI (CC50/EC50): 53
  EC50: 50% effective antiviral concentration: 5.2 µg/mL
  Antiviral activity against SARS-CoV-2 (words): High antiviral activity

## AGCCCTGTATACGAC [FS (13.458-13.274)MOE] (2'-MOE modified, pattern not given here)
Vero 76 cells
  CC50: 50% cytotoxic concentration of compound without virus added: >1000 µg/mL
SARS-COV-2 USA_WA1/2020 [6]
  SI=CC50/EC50: >40
  EC50: 50% effective antiviral concentration: 25 µg/mL

## CATTGTAGATGTCAAAAGCC (phosphorothioate backbone, further chemistry not given here) [FS-2a (13539-13558)]
Vero 76 cells
  CC50: > 1000 µg/mL
  CC50: 50% cytotoxic concentration of compound without virus added: >1000 µg/mL
SARS-COV-2 USA_WA1/2020 [6]
  SI=CC50/EC50: >59
  SI (CC50/EC50): >59
  EC50: 50% effective antiviral concentration: 17 µg/mL
  Antiviral activity against SARS-CoV-2 (words): High antiviral activity

## CGTTTAGAGAACAGATCTAC [TRS2-2 53-72 MOE] (2'-MOE modified, pattern not given here)
Vero 76 cells
  CC50: > 1000 µg/mL
  CC50: 50% cytotoxic concentration of compound without virus added: >1000 µg/mL
SARS-COV-2 USA_WA1/2020 [6]
  SI=CC50/EC50: >16
  SI (CC50/EC50): >16
  EC50: 50% effective antiviral concentration: 62 µg/mL

## CGTTTAGAGAACAGATCTAC [TRS2-2 53-72] (phosphorothioate backbone, further chemistry not given here)
Vero 76 cells
  CC50: > 1000 µg/mL
  CC50: 50% cytotoxic concentration of compound without virus added: >1000 µg/mL
SARS-COV-2 USA_WA1/2020 [6]
  SI=CC50/EC50: >530
  SI (CC50/EC50): >530
  EC50: 50% effective antiviral concentration: 1.9 µg/mL
  Antiviral activity against SARS-CoV-2 (words): High antiviral activity

## CTCCCTCATGGTGGCAGTTGA (chemistry not given here) [RSV, reference compound]
Vero 76 cells
  CC50: > 1000 µg/mL
SARS-COV-2 USA_WA1/2020 [6]
  SI=CC50/EC50: >1.6
  SI (CC50/EC50): >1.6
  EC50: 50% effective antiviral concentration: 620.0 µg/mL and 620 µg/mL
  Antiviral activity against SARS-CoV-2 (words): did not demonstrate any suppression

## GGTAGGTAAAAACCTAATAT [5TERM (1-20) MOE] (2'-MOE modified, pattern not given here)
Vero 76 cells
  Cytotoxicity: Cytotoxicity was observed
  CC50: 50% cytotoxic concentration of compound without virus added: 610 µg/mL
Vero 76 cells; SARS-CoV-2 test
  Cytotoxicity: Cytotoxicity was observed
SARS-COV-2 USA_WA1/2020 [6]
  SI=CC50/EC50: 120
  SI (CC50/EC50): 120
  EC50: 50% effective antiviral concentration: 4.9 µg/mL
  Antiviral activity against SARS-CoV-2 (words): High antiviral activity
SARS-CoV (Urbani strain)
  SI (CC50/EC50): >2.6

## GGTAGGTAAAAACCTAATAT [5TERM (1-20)] (phosphorothioate backbone, further chemistry not given here)
Vero 76 cells
  CC50: > 1000 µg/mL
  CC50: 50% cytotoxic concentration of compound without virus added: >1000 µg/mL
SARS-COV-2 USA_WA1/2020 [6]
  SI=CC50/EC50: >140
  SI (CC50/EC50): >140
  EC50: 50% effective antiviral concentration: 7.1 µg/mL
  Antiviral activity against SARS-CoV-2 (words): High antiviral activity

## GTTCGTTTAGAGAACAGATC (phosphorothioate backbone, 5-methyl C, further chemistry not given here) [TRS1 (53-72)]
Vero 76 cells; SARS-CoV-2 test
  Cytotoxicity: Cytotoxicity was observed
Vero 76 cells
  CC50: 50% cytotoxic concentration of compound without virus added: 720 µg/mL
SARS-COV-2 USA_WA1/2020 [6]
  SI=CC50/EC50: 95
  SI (CC50/EC50): 95
  EC50: 50% effective antiviral concentration: 7.6 µg/mL
  Antiviral activity against SARS-CoV-2 (words): High antiviral activity

## TAAAGTTCGTTTAGAGAACAG (phosphorothioate backbone, further chemistry not given here) [TRS2 (56-76)]
Vero 76 cells
  CC50: > 1000 µg/mL
  Cytotoxicity: Cytotoxicity was observed
  CC50: 50% cytotoxic concentration of compound without virus added: >1000 µg/mL
SARS-COV-2 USA_WA1/2020 [6]
  SI=CC50/EC50: >14
  SI (CC50/EC50): >14
  EC50: 50% effective antiviral concentration: 73 µg/mL
SARS-CoV (Urbani strain)
  SI (CC50/EC50): >2.9

From patent US20230201290A1, “TGF-BETA INHIBITION, AGENTS AND COMPOSITION THEREFOR” (GMP BIOTECHNOLOGY LIMITED, priority 2020, published 2023)
